Earlier results in US8337856B2, “Methods of treatment using anti-ERBB antibody-maytansinoid conjugates” (Immunogen, Inc., priority 2000, dated 2012).

Settings: clinical trials discontinued

## COc1cc2cc(c1Cl)N(C)C(=O)C[C@H](OC(=O)[C@H](C)N(C)C(C)=O)[C@]1(C)O[C@H]1[C@H](C)[C@@H]1C[C@@](O)(NC(=O)O1)[C@H](OC)/C=C/C=C(\C)C2 [maytansine, Maytansine]
  adverse effects in clinical trials: serious adverse effects on the central nervous system and gastrointestinal system
